Data: patent publication US11510993B2, “Antibody drug conjugate for anti-inflammatory applications” (Merck Sharp & Dohme Corp., priority 2015, dated 2022)

How the values were obtained:
[1] = Solubility of drug-linkers in 20% MeCN/H2O; format: physicochemical; conditions: tested at a concentration of 10 mg/mL
Description: The solubility of exemplary drug-linker conjugates in aqueous solutions was evaluated. Linkers utilized in drug conjugates may have aqueous solubility to enable conjugation in aqueous media amenable to protein solubilization. Furthermore, linkers with aqueous solubility are considered hydrophilic, and may confer to the drug conjugate a reduced propensity to aggregate relative to standard hydrophobic linkers in the literature. The following exemplary drug-linkers were tested in an aqueous solution comprising 20% acetonitrile (MeCN/H2O) for solubility at a concentration of 10 mg/mL.

[2] = In vitro stability of drug-linkers in rat liver lysosomal lysate (parent and released dexamethasone, LC-MS/MS); conditions: for Calculated Conc. for dexamethasone rat lysomeal lysate: released dexamethasone
Description: Rat Liver lysosomes were available commercially with a pool of 6 animals. All linker compounds were solubilized in DMSO to form each 10 mM stock solution. Dosing solution for each linker was prepared by serial dilution of each stock solution using 1:3 acetonitrile: water. All solutions were kept on ice during the experiment.
Rat lysosomes were pre-warmed in a 37° C. water bath in an appropriate volume to collect samples over a time course from 0 minutes through 6 hours. Incubating lysosomes were mixed well just prior to sampling to give a homogenous mixture. Aliquots of lysosomes were removed at appropriate time points, added to cold stopping solution, which was methanol containing an appropriate internal standard, and mixed rigorously. The samples were centrifuged at 4000 RPM for 10 minutes after which equal volumes of supernatant were diluted with cold deionized water. The samples were ready for analysis.
(§1) A Thermo LX-2 ultra-performance liquid chromatography system coupled with a Sciex API5000 triple quadrupole mass spectrometer was used for the analysis. The payload and drug-linkers were retained and separated by a C18 column and detected by the mass spectrometer. […] Samples were kept in cold stack set at 5° C.

[3] = In vitro stability of drug-linkers in human whole blood (parent and released dexamethasone, LC-MS/MS); conditions: for Calculated Conc. for dexamethasone in human whole blood: released dexamethasone
Description: General Experimental Procedure Human Blood Incubation Human blood was collected the morning of the experiment from at least 3 individuals using K2EDTA as the anticoagulant. An equal volume from each individual was combined for use in the experiment. The experiment started no more than 2 hours after the blood collection. All drug-linker conjugates were solubilized in DMSO to form each 10 mM stock solution. Dosing solution for each linker was prepared by serial dilution of each stock solution using 1:3 acetonitrile:water. All solutions were kept on ice during the experiment.
Human blood was pre-warmed in a 37° C. water bath in an appropriate volume to collect samples over a time course from 0 through 6 hours. Incubating blood was mixed well just prior to sampling to give a homogenous mixture. Aliquots of blood were removed at appropriate time points, added to cold stopping solution, which was methanol containing an appropriate internal standard, and mixed rigorously. The samples were centrifuged at 4000 RPM for 10 minutes after which equal volumes of the supernatant fractions were diluted with cold deionized water. The samples were then ready for analysis.
as §1

[4] = Matrix spiking (lysosomes pretreated with stopping reagent)

Structure (SMILES): C[C@@H]1C[C@H]2[C@@H]3CCC4=CC(=O)C=C[C@]4(C)[C@@]3(F)[C@@H](O)C[C@]2(C)[C@@]1(O)C(=O)COP(=O)(O)OP(=O)(O)OCCNC(=O)COC1C#CCCCCC1 (stereo partly drawn) [Drug Linker 1-4, 2-(2-(cyclooct-2-yn-1-yloxy)acetamido)ethyl(2-((8 S,9R,10S,11S,13 S,14 S,16R,17R)-9-fluoro-11,17-dihydroxy-10,13,16-trimethyl-3-oxo-6,7,8,9,10,11,12,13,14,15,16,17-dodecahydro-3H-cyclopenta[a]phenanthren-17-yl)-2-oxoethyl) dihydrogen pyrophosphate]
- Measured Solubility in 20% MeCN/H2O [1]: >10 mg/mL
- Calculated Conc. for each compound in rat lysomal lysate ([2]; 0 m, 37° C.): 1148.2 nM
- Calculated Conc. for each compound in rat lysomal lysate ([2]; 5 m, 37° C.): 158.2 nM
- Calculated Conc. for each compound in rat lysomal lysate ([2]; 10 m, 37° C.): 19.0 nM
- Calculated Conc. for each compound in rat lysomal lysate ([2]; 15 m, 37° C.): 3.7 nM
- Calculated Conc. for each compound in rat lysomal lysate [2, 4]: 2487.3 nM
- Calculated Conc. for dexamethasone rat lysomeal lysate ([2]; 0 m): 4.7 nM
- Calculated Conc. for dexamethasone rat lysomeal lysate ([2]; 5 m): 320.7 nM
- Calculated Conc. for dexamethasone rat lysomeal lysate ([2]; 10 m): 559.4 nM
- Calculated Conc. for dexamethasone rat lysomeal lysate ([2]; 15 m): 831.7 nM
- Calculated Conc. for dexamethasone rat lysomeal lysate ([2]; 30 m): 1059.6 nM
- Calculated Conc. for dexamethasone rat lysomeal lysate ([2]; 1 hr): 1148.8 nM
- Calculated Conc. for dexamethasone rat lysomeal lysate ([2]; 2 hr): 854.5 nM
- Calculated Conc. for dexamethasone rat lysomeal lysate ([2]; 3 hr): 841.9 nM
- Calculated Conc. for dexamethasone rat lysomeal lysate ([2]; 6 hr): 826.6 nM
- Calculated Conc. for each compound in human whole blood ([3]; 0 m, 37° C.): 1617 nM
- Calculated Conc. for each compound in human whole blood ([3]; 1 hr, 37° C.): 1421 nM
- Calculated Conc. for each compound in human whole blood ([3]; 6 hr, 37° C.): 1400 nM
- Calculated Conc. for each compound in human whole blood ([3]; Matrix spiking (time 0 sample, blood pretreated with stopping reagent)): 3059 nM
- Calculated Conc. for dexamethasone in human whole blood ([3]; 0 m): 0 nM
- Calculated Conc. for dexamethasone in human whole blood ([3]; 1 hr): 0 nM
- Calculated Conc. for dexamethasone in human whole blood ([3]; 6 hr): 0 nM
- Calculated Conc. for dexamethasone in human whole blood ([3]; Matrix Spiking): 2 nM

Structure (SMILES): C[C@@H]1C[C@H]2[C@@H]3CCC4=CC(=O)C=C[C@]4(C)[C@@]3(F)[C@@H](O)C[C@]2(C)[C@@]1(O)C(=O)COP(=O)(O)Oc1ccc(NC(=O)COC2C#CCCCCC2)cc1 (stereo partly drawn) [Drug Linker 5-3, 4-(2-(cyclooct-2-yn-1-yloxy)acetamido)phenyl (2-((8S,9R,10S,11S,13S,14S,16R,17R)-9-fluoro-11,17-dihydroxy-10,13,16-trimethyl-3-oxo-6,7,8,9,10,11,12,13,14,15,16,17-dodecahydro-3H-cyclopenta[a]phenanthren-17-yl)-2-oxoethyl) hydrogen phosphate]
- Measured Solubility in 20% MeCN/H2O [1]: >10 mg/mL
- Calculated Conc. for each compound in rat lysomal lysate ([2]; 0 m, 37° C.): 1394.08 nM
- Calculated Conc. for each compound in rat lysomal lysate ([2]; 5 m, 37° C.): 1295.86 nM
- Calculated Conc. for each compound in rat lysomal lysate ([2]; 10 m, 37° C.): 1278.4 nM
- Calculated Conc. for each compound in rat lysomal lysate ([2]; 15 m, 37° C.): 1407.73 nM
- Calculated Conc. for each compound in rat lysomal lysate ([2]; 30 m, 37° C.): 1175.39 nM
- Calculated Conc. for each compound in rat lysomal lysate ([2]; 1 hr, 37° C.): 970.65 nM
- Calculated Conc. for each compound in rat lysomal lysate ([2]; 2 hr, 37° C.): 743.45 nM
- Calculated Conc. for each compound in rat lysomal lysate ([2]; 3 hr, 37° C.): 500.41 nM
- Calculated Conc. for each compound in rat lysomal lysate ([2]; 6 hr, 37° C.): 221.03 nM
- Calculated Conc. for each compound in rat lysomal lysate [2, 4]: 2555.29 nM
- rate of dexamethasone release in rat lysosomal extract (in words) ([2]; compared with 3-4, 5-3 releasing faster than 4-3): more slowly released
- Calculated Conc. for each compound in human whole blood ([3]; 0 m, 37° C.): 1299 nM
- Calculated Conc. for each compound in human whole blood ([3]; 5 m, 37° C.): 1251 nM
- Calculated Conc. for each compound in human whole blood ([3]; 15 m, 37° C.): 1276 nM
- Calculated Conc. for each compound in human whole blood ([3]; 30 m, 37° C.): 1111 nM
- Calculated Conc. for each compound in human whole blood ([3]; 1 hr, 37° C.): 937 nM
- Calculated Conc. for each compound in human whole blood ([3]; 2 hr, 37° C.): 1480 nM
